In the METLIN SMRT retention time set (Domingo-Almenara et al. 2019):

Assay: gradient 5% acetonitrile 3 min, to 50% in 2 min, to 85% in 15 min, held 3 min, 100 µL/min
Details: column: Zorbax Extend-C18 2.1 x 50 mm; eluents: water / acetonitrile, 0.1% formic acid
Outline: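 Each retention time is based on an adduct peak selected computationally and verified by manual inspection. Measurements used HPLC–quadrupole time-of-flight mass spectrometry in positive and negative ionization mode on mixtures of ~100 pure standards. Chromatography ran on a Zorbax Extend-C18 column (2.1 × 50 mm, 1.8 μm) at 100 μL/min with water and acetonitrile, each containing 0.1% formic acid, and dead and dwell volumes of 40 μL and 900 μL.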

RP-LC retention time | SMILES
668 s | CCCn1c(CCNC(=O)c2ccc(C)cc2)nc2cccnc21
734 s | COc1ccc(OC)c(S(=O)(=O)N2CCn3c(nn(CC4CC4)c3=O)C2)c1
898 s | O=C(Cn1cccc(-c2nc(-c3ccc(F)cc3)no2)c1=O)NCc1ccccc1Br
970 s | O=C(NC1CCCCCC1)C1=C2CCCN2c2ccc(F)cc2S1(=O)=O
766 s | CC(C)N1CCN(Cc2ccc(C(=O)NCc3cccc(C(F)(F)F)c3)cc2)C(=O)C1=O
739 s | Cc1ccc(CNS(=O)(=O)c2cc3n(c2)CCCNC3=O)cc1C
729 s | Cc1nnc(-c2ccc3ccn(CC(=O)NCc4cccs4)c3c2)o1
718 s | O=C(c1cc(C2CC2)on1)N1CCCC1
600 s | O=S(=O)(c1cccc2cccnc12)N1CC[C@@H]2COCCN(Cc3cccnc3)[C@@H]2C1
669 s | CSc1nnc(-c2nn(C)c3c2CN(C(=O)c2cccc(N(C)C)c2)CC3)n1C
862 s | Cc1cc(NC(=O)Cn2nc(C(=O)N3CCOCC3)c3ccccc32)ccc1Br
540 s | CCOC(=O)N1CCN(C(=S)Nc2ccc3nc(N4CCN(C)CC4)cc(C)c3c2)CC1
747 s | CCCNC(=O)C1CCN(S(C)(=O)=O)c2cc(Cl)ccc2O1 (stereo unspecified)
630 s | CCn1nc(C)c(CCNC(=O)C2CCCN(C(=O)c3[nH]c(C)cc3C)C2)c1C (stereo unspecified)
1080 s | COc1ccc(-c2csc(NC(=O)CS(=O)(=O)c3ccc(Cl)cc3)n2)cc1C
592 s | O=C(Nc1ccccc1F)N1CCc2nnc(C3CC3)n2CC1
935 s | CCOc1ccc(NC(=O)c2cnc(-c3ccc(F)cc3)nc2-c2ccncc2)cc1
881 s | CCCn1c(=O)sc2cc(S(=O)(=O)N3CCC(C(=O)N(CC)CC)CC3)ccc21
946 s | CC(C)Oc1ccc(CNC(=O)C2CCCN(c3ccc(=O)n(-c4cccc(Cl)c4)n3)C2)cc1 (stereo unspecified)
752 s | Cc1sc(-c2cc(C(F)(F)F)[nH]n2)cc1S(=O)(=O)N1CCN(c2ccccn2)CC1
1260 s | O=C(COc1ccc(Cl)cc1)Nc1ccc(-c2nc(-c3ccc(F)cc3)no2)cc1
731 s | O=C(CC1CCCCC1)Nc1cccc(-c2nnc3n2CCCC3)c1

RP-LC retention time | SMILES
990 s | O=C(CSc1nnc(-c2ccc3c(c2)OCO3)o1)N1CCc2ccccc2C1
859 s | Cc1ccc(CNC(=O)c2sc(Nc3ccc(F)cn3)nc2C)cc1
620 s | CCc1nccn1Cc1nc(-c2ccc(OC)cc2)no1
586 s | COc1ccc(S(=O)(=O)N2CCc3nc[nH]c3C2)cc1
730 s | Cn1c(=O)c2nc(S(=O)(=O)CCC(=O)Nc3cc(F)ccc3F)n(C)c2n(C)c1=O
838 s | O=C(NC1CCCCCCC1)C1CCN(S(=O)(=O)c2cc(C(=O)N3CCOCC3)cs2)CC1
791 s | O=C(NCCCn1cccc1)c1ccc(F)c(F)c1
576 s | Cc1noc(C)c1CCC(=O)N1CCN(Cc2csc(-c3ccccc3)n2)CC1
607 s | CSc1ccccc1CN1CCC(CNS(=O)(=O)/C=C/c2ccccc2)CC1
628 s | CCCNc1cc(N2CCCC(CCC(=O)N3CCN(C(=O)c4ccco4)CC3)C2)ncn1 (stereo unspecified)
593 s | Cc1nc(C2CCCCN2C(=O)c2ccco2)n[nH]1 (stereo unspecified)
968 s | O=C(c1cn(-c2ccc(-c3nc(C4CC4)no3)cn2)cn1)N1CCc2ccccc2C1
790 s | Cc1c(CC(=O)N2CCN(c3cccc(Cl)c3)CC2)c2c(=O)n(C)c(=O)n(C)c2n1C
1300 s | O=C(Nc1ccc(F)cc1Cl)c1c(O)c2cccnc2n(-c2ccc(F)cc2)c1=O
790 s | Cc1ccc(C(=O)N2CCOc3ccc(NC(=O)C4CC4)cc3C2)s1
822 s | CC1(C(=O)NCc2ccc3c(c2)OCO3)CCN(C(=O)c2ccccc2C(F)(F)F)CC1
850 s | Cc1cc(C)cc(C(=O)N2CCC3(CC2)NC(=O)c2cc(Cl)ccc2N3C)c1
794 s | Cc1ccc(C)c(NS(=O)(=O)c2cc3n(c2)CCN(C(C)C)C3=O)c1
679 s | CCCNC(=O)C1CCN(c2ccc(SCC(=O)Nc3ccc(C)c(F)c3)nn2)CC1
849 s | Fc1ccc(-c2nc(-c3ccc4nncn4c3)no2)c(Cl)c1
592 s | O=C(NCCCN1CCOCC1)c1cc(-c2ccccn2)nc2ccccc12
816 s | Cc1ccccc1Cn1c(CN2CCC(C(=O)N(C)Cc3ccco3)CC2)cc2ccccc21

RP-LC retention time | SMILES
663 s | COc1ccc(C(C)NC(=O)C2CCCN(c3cnc4nccnc4c3)C2)cc1OC (stereo unspecified)
1120 s | COc1ccccc1N1CCN(c2ncc(S(=O)(=O)c3ccc(C(C)C)cc3)c(N)n2)CC1
1050 s | CC1Oc2ccc(-c3csc(NC(=O)CCc4ccccc4)n3)cc2NC1=O (stereo unspecified)
939 s | Cc1cc(C)c(C)c(S(=O)(=O)N(C)C)c1C
836 s | CCCn1ccc2sc(C)c(C(=O)NCc3ccc(OC)cc3)c2c1=O
783 s | O=C(Nc1ccc(F)cc1)NC1CCN(c2ccc(F)cc2)C1=O (stereo unspecified)
734 s | CCC(=O)N1CCc2cc(N3CC(C(=O)NCc4cc(F)cc(F)c4)CC3=O)ccc21 (stereo unspecified)
1240 s | CCc1cccc(NC(=O)c2cc(C(C)C)n3nccc3n2)c1
580 s | CN1CCN(C(CNS(=O)(=O)c2cc(F)ccc2F)c2cccn2C)CC1 (stereo unspecified)
787 s | COc1ccc(S(=O)(=O)C(CNC(=O)c2ccc3c(c2)OCO3)c2cccs2)cc1 (stereo unspecified)
947 s | COc1ccc(N2CC(c3nc(-c4ccc(Cl)cc4)no3)CC2=O)cc1OC (stereo unspecified)
828 s | Cc1ccc(Cl)cc1N1CCN(c2cc(C(=O)O)c3cc(NC(=O)CC(C)C)ccc3n2)CC1
639 s | CC(C)c1nnc(C2CN(C(=O)c3cccn3C)CC23CCOCC3)o1 (stereo unspecified)
1050 s | COc1ccc(-c2noc(Cn3c(=O)n(CC(C)C)c(=O)c4ccccc43)n2)cc1OC
591 s | CCN1CCCC1CNC(=O)c1cc(S(=O)(=O)CC)c(N)cc1OC (stereo unspecified)
822 s | CCN1C(=O)c2c(C(=O)Nc3ccc(C)cc3)ncn2CC1(C)C(=O)NC1CCCC1 (stereo unspecified)
905 s | CCc1ccc(NC(=O)Cn2c(=O)nc(N3CCCC(C)C3)c3ccccc32)cc1 (stereo unspecified)
901 s | Cn1cc(C2=CCN(C(=O)c3cccc(Cl)c3)CC2)c2cccnc21
669 s | CCc1ccc(CNC(=O)c2cc(-c3ccncc3)cn2C)cc1
690 s | COc1ccc(NC(=O)N2CCC(n3c(-c4ccco4)nc4cccnc43)C2)cc1F (stereo unspecified)
575 s | COc1nccc(N2CCC(CC(=O)NCc3ccc(OC)c(OC)c3)CC2)n1
590 s | COc1cc2c(cc1OC)C1C(C(=O)NCCN3CCOCC3)c3ccccc3C(=O)N1CC2 (stereo unspecified)
